Measurements as given in publication PMC4955970, “Stable, synthetic analogs of diadenosine tetraphosphate inhibit rat and human P2X3 receptors and inflammatory pain” (Molecular Pain, 2016).
Like-named read-outs stand apart in the source and are kept apart here.

How the values were obtained:
Type in all cases: cell-based
[1] = target: T1, rat homomeric P2X3 receptors (Rattus norvegicus, UniProt P49654); test: Whole-cell patch clamp on HEK293 cells expressing rat homomeric P2X3R (activation and HAD inhibition of α,β-meATP test pulses); conditions: for nH of activation curve: partial agonist dose-response
T1 construct: transfected with rat or human full-length P2X3 cDNA subcloned into pIRES2-EGFP; expressed in transfected cells; host or cells: HEK293T (HEK293 in the results)
T1 sequence (P49654 1-397): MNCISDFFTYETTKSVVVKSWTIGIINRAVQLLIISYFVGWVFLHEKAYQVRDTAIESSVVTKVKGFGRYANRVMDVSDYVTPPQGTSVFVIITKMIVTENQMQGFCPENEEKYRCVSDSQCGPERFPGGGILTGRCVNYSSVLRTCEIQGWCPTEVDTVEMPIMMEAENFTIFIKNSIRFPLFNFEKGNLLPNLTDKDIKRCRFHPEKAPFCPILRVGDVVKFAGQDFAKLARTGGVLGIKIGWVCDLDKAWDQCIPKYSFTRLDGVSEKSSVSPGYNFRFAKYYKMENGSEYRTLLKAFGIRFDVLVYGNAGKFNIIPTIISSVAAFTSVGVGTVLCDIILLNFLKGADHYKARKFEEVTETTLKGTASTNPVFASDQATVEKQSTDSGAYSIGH
Method: (§1) Rat trigeminal, nodose, or dorsal root ganglion (TG, NG, and DRG, respectivley) neurons in culture were prepared as described previously.[46],[47] Neurons were plated on poly-L-lysine (0.2 mg/ml)-coated Petri dishes and cultured for one to two days under an atmosphere containing 5% CO2. Cells were used within two days of plating when they lacked processes. HEK293T cells were prepared as reported previously[32],[48] and transfected with rat or human full-length P2X3 cDNA subcloned into pIRES2-EGFP (Clontech, Mountain View, CA, USA).
(§2) TG, NG, DRG, or HEK cells were recorded in the whole-cell configuration while being continuously superfused (at 2 ml/min) with control solution containing (in mM): 152 NaCl, 5 KCl, 1 MgCl2, 2 CaCl2, 10 glucose, and 10 HEPES; pH was adjusted to 7.4 with NaOH and osmolarity was adjusted to 320 mOsM with glucose. […] Responses to selective P2X3R agonist α,β-methylene-ATP (α,β-meATP; resistant to ectoATPase hydrolysis, Sigma-Aldrich) were measured using an EPC-9 amplifier operated by HEKA Patch Master software (HEKA Electronik, Germany). Cells were voltage-clamped at −70 mV. In most cells, series resistance was compensated by 80%. To determine EC50 values, dose-response curves were constructed for α,β-meATP by administering different agonist doses same cells and fitting data to a logistic equation (Origin 8.0, Microcal, Northampton, MA).
Agonists and antagonists were applied (usually for 2 s) via a rapid superfusion system (Rapid Solution Changer RSC-200; BioLogic Science Instruments, Grenoble, France) placed 100 to 150 µm near the cell. The time for the solution exchange across the cell was approximately 30 ms, as judged with liquid junction potential measurements. All chemicals, including enzymes for cell culture, were from Sigma-Aldrich (St. Louis, MO). Culture media were obtained from Invitrogen (Milan, Italy).
The peak amplitudes of the responses were measured using HEKA Patch Master software. For each agonist, dose-response plots were constructed by normalizing data with respect to the maximum response. All data are presented as mean ± SEM (n = the number of cells) with statistical significance assessed by paired t-test (for parametric data) or Mann-Whitney rank-sum test (for nonparametric data). Best fits of data with a sigmoid function were compared with respective control fits using Origin 8.0 software. A value of p < 0.05 was accepted as indicative of statistically significant difference.
Figure 2. Activation and inhibition of rat P2X3 receptors by AppNHppA. Top: Experimental protocol. Test pulses of 10 µM of α,β-meATP were delivered every 2 min. After two control pulses, AppNHppA at different concentrations was applied for 6 min. Example traces of P2X3R-mediated currents in control and after 2 min application of 10 nM (a) and 3 μM (b) of AppNHppA (corresponding to the part of the experimental protocol outlined by a dotted box). (c) The time course of the current inhibition by AppNHppA at different (1 nM–3 μM) concentrations (n = 4–6). Current amplitudes are normalized to control. (d) Dose-response curves for the activation and inhibition of P2X3-mediated currents by AppNHppA.

[2] = target: T2, native P2X3Rs in TG neurons (Rattus norvegicus, UniProt P49654); test: Whole-cell recording of α,β-meATP currents in cultured trigeminal ganglion (TG) neurons; conditions: read-out: inhibition of peak currents in TG neurons
T2 construct: endogenous in cells; host or cells: cultured rat trigeminal ganglion (TG) or dorsal root ganglion (DRG) neurons
T2 sequence (P49654 1-397): T1 sequence (P49654 1-397)
Method: as §1
as §2, with “MA). […]” for “MA).”

[3] = target: T3, native P2X3Rs in TG neurons (Rattus norvegicus, UniProt P49654); test: as above; conditions: read-out: inhibition of sustained residual component in TG neurons
T3 construct: endogenous in cells; host or cells: cultured rat trigeminal ganglion (TG) or dorsal root ganglion (DRG) neurons
T3 sequence (P49654 1-397): T1 sequence (P49654 1-397)
T3 sequence (P49653 1-472 partner): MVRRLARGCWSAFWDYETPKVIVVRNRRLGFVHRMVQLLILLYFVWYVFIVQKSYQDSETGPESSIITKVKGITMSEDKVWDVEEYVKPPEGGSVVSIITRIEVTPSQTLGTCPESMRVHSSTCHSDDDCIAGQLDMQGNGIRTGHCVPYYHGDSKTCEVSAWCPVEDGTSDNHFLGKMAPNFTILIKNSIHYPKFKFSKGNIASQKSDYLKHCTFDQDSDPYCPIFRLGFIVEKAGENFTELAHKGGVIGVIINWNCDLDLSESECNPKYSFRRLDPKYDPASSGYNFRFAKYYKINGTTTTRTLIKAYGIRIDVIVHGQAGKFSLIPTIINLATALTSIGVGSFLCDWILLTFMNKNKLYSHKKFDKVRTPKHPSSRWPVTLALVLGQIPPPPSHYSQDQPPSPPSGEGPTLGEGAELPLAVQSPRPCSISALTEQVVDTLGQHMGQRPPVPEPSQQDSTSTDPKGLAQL
Method: as §1
as §2, with “MA). […]” for “MA).”

Nc1ncnc2c1ncn2[C@@H]1O[C@H](COP(=O)(O)OP(=O)(O)CP(=O)(O)OP(=O)(O)OC[C@H]2O[C@@H](n3cnc4c(N)ncnc43)C(O)C2O)C(O)C1O (stereo partly drawn) [AppCH2ppA, diadenosine 5′,5′′′-P^1,P^4-(β,γ-methylene)tetraphosphate]
depression of P2X3R currents at high rate of activation ([1]; 1 µM, α,β-meATP pulses every 30 s): 81 ± 3% | depression of P2X3R currents at low rate of activation ([1]; 1 µM, α,β-meATP pulses every 2 min): 61.3 ± 5% | IC50 ([1]; 6 min after drug application, test pulse 10 µM α,β-meATP, read-out: IC50 of HAD inhibition of P2X3R currents): 0.55 ± 0.2 µM | EC50 ([1]; HEK293 rat P2X3R, read-out: EC50 of partial agonist P2X3R activation): 9.3 ± 1.7 µM | nH of activation curve [1]: 2.27 ± 0.56

Nc1ncnc2c1ncn2[C@@H]1O[C@H](COP(=O)(O)OP(=O)(O)NP(=O)(O)OP(=O)(O)OC[C@H]2O[C@@H](n3cnc4c(N)ncnc43)[C@H](O)[C@@H]2O)[C@@H](O)[C@H]1O [AppNHppA, diadenosine 5′,5′′′-P^1,P^4-(β,γ-imido)tetraphosphate]
IC50 [1]: 0.2 ± 0.04 µM | amplitude of α,β-meATP test response after application ([1]; 10 nM, test pulse 10 µM α,β-meATP, 2-min interval): almost unchanged | reduction of α,β-meATP test responses (HAD effect) ([1]; 100 nM, below activation threshold): 38.2 ± 8.5% | inhibition of α,β-meATP test responses (HAD effect) ([1]; 3 µM, test pulse 10 µM α,β-meATP, 2-min interval): complete inhibition | induction of membrane currents ([1]; 0.1 or 1 µM, HEK293 rat homomeric P2X3R): not to induce membrane currents | currents generated ([1]; 10 or 100 µM, HEK293 rat homomeric P2X3R): small and slowly desensitizing currents | EC50 ([1]; EC50 of activation (summary restatement), rat P2X3R, summary statement): 41 µM | EC50 ([1]; EC50 of partial agonist P2X3R activation, HEK293 rat P2X3R): 41.6 ± 1.3 µM | inhibitory action in presence of G-protein inhibitor GDP-β-S ([1]; GDP-β-S 500 µM introduced into cells): remained unchanged | inhibition at 1 µM ([1]; HEK293, read-out: inhibitory action on P2X3 receptors with GDP-β-S in intracellular solution): 23.9 ± 5.24% | inhibition at 1 µM ([1]; HEK293, read-out: inhibitory action on P2X3 receptors with GTP in intracellular solution): 23.4 ± 2.01% | agonist type at homomeric P2X3Rs ([1]; compared with full agonist α,β-meATP): only a partial agonist | nH of activation curve [1]: 1.58 ± 0.05 | EC50/IC50 ratio (activation/inhibition index) ([1]; rat P2X3R): 205 | current response relative to response induced by 10 µM α,β-meATP ([1]; saturating 1 mM, same cell): 41.2 ± 13% | inhibition at 1 µM [2]: 80.3 ± 4.4% | inhibition at 1 µM [3]: 15 ± 6%
